Experimental data as given in patent US20050233413A1, “Neuroprotective polypeptides and methods of use” (priority 2002, published 2005).
Where no end group is shown, it is not given here.

T1: (His)6-(S7A)HN
T1 construct: Synthetic peptide, immobilised on Ni-NTA agarose; also called His-S7A
T1 peptide: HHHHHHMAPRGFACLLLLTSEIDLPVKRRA


How the values were obtained:
[1] = system: F11 cells transfected with V642I-APP, NL-APP, M146L-PS1 or N141I-PS2 cDNA; type: cell-based, rat/mouse hybrid; conditions: each of V642I-APP, read-out: IC50 of suppression of neuronal cell death by FAD genes
Excerpt: F11 cells, the hybrid of a rat embryonic-day-13 primary cultured primary neuron and a mouse neuroblastoma cell, are one of the best models for primary cultured neurons as they carry representative characteristics of primary neurons, such as generation of action potentials without differentiation by NGF [22]. They have been used in various studies of is neuronal functions. Using these cells, the underlying mechanisms for cytotoxicity by V642I-APP have well been analyzed. Cytotoxicity by V642 mutants of APP has also been confirmed in multiple different systems. F11 cells were grown in Ham's F-12 (GibcoBRL, Gaithersburg, Md.) plus 18% fetal bovine serum (FBS; Hyclone, Logan, Utah) and antibiotics, as described previously. F11 cells (7×10^4 cell/well in a 6-well plate cultured in Ham's F-12 plus 18% FBS for 12-16 hr) were transfected with plasmids encoding FAD genes by lipofection [FAD cDNA 2 μg, LipofectAMINE 4 μl, PLUS reagent 8 μl (GibcoBRL)] in the absence of serum for 3 hr, and were incubated with Ham's F-12 plus 18% FBS for 2 hr. Then, culture media were changed to Ham's F-12 plus 10% FBS with or without HN peptides, and cells were cultured for an additional 67 hr. Seventy-two hr after transfection, cell mortality was measured by Trypan blue exclusion assay, performed as follows. Cells were suspended by pipetting gently, and 50 μl of 0.4% (finally 0.08%) Trypan blue solution (Sigma, St Louis, Mo.) was mixed with 200 μl of the cell suspension at room temperature. Stained cells were counted within 3 min after the mixture with Trypan blue solution.

[2] = system: Aβ and four FAD genes (V642I-APP, NL-APP, M146L-PS1, and N141I-PS2); type: cell-based; conditions: Table 5, marked *
How it was run: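 Rat/mouse hybrid F11 neuronal cells were transfected with FAD genes, then cultured 67 h with or without HN peptides; mortality was scored by Trypan blue exclusion 72 h post-transfection. Mouse primary cortical neurons were preincubated 16 h with HN, exposed to 25 μM Aβ for 72 h, and viability measured by WST-8 (OD450) and Calcein-AM fluorescence.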

[3] = Apparent stability of peptides in the culture medium; type: physicochemical; conditions: 72-hr incubation of 10 μM peptides in the cultured medium; data not shown
Excerpt: The Ser^7 residue plays a role different from that of Ser^14. S7A substitution nullified the action of HN, while Ser^7 racemation had no influence. […] Given the fact that EFLIVIKS or EFLIVKS is the established amino acid sequence to form a dimer and that EFLIVIKS alone had no cytoprotective action, it is most likely that Ser^7 is essential for HN to self-dimerize and that self-dimerization of HN is essential for the action of HN. […] This level of stability alterations could not account for the drastic potentiation of the rescue action by the fusion with EFLIVIKS.

HN (self-dimerization) = target: T2, HN (self-dimerization) (Homo sapiens, UniProt Q8IVG9); experiment: Dimerization experiment (Ni-bead precipitation of FLAG-tagged peptide by (His)6-tagged peptide); type: binding; conditions: excess amounts of competitor
T2 construct: host or cells: chemically synthesised peptide (no expression host)
Method: (§1) Synthetic (His)6-tagged HN derivative peptides (1 nmol) was incubated with 20 μl of Ni-NTA agarose (QIAGEN, Hilden, Germany) in a total volume of 0.5 ml of buffer A [20 mM Tris/HCl (pH8.0) and 1 mM DTT] for 1 hr at 4° C. and washed once with buffer B [20 mM Tris/HCl (pH 7.4), 1 mM DTT, and 150 mM NaCl]. Synthetic FLAG-tagged peptides (1 nmol) were mixed with the beads immobilizing (His)6-tagged peptides in a total volume of 0.5 ml of buffer B for 2 hr at 4° C. on a rotating shaker, and washed three times with buffer B. The washed beads were mixed with 20 μl of 2× sampling buffer [100 mM Tris/HCl (pH6.8), 200 mM DTT, 4% (w/v) SDS, 0.2% bromophenol blue, and 20% (v/v) glycerol] and boiled. The supernatant was submitted to Tris/Tricine SDS-PAGE, followed by immunoblotting analysis with 1/5000 anti-FLAG monoclonal antibody M2 (Sigma).

[4] = system: primary cultured neurons treated with 25 μM Aβ1-43; conditions: as described previously [16]; read-out: IC50 of the HNG action against Aβ1-43-induced neuronal death; cited from earlier work
(His)6-(S7A)HN = target: T1, (His)6-(S7A)HN; experiment: Ni-bead pull-down, anti-FLAG immunoblot
Method: as §1, with “(His)₆-tagged” for “(His)6-tagged”
Synthetic (His)₆-HN was mixed with synthetic HN-FLAG, and precipitated by Ni-beads. The precipitate was examined with an anti-FLAG antibody for HN-FLAG. […] Under the same conditions, (S7A)HN-FLAG was not precipitated by (His)₆-(S7A)HN. EF-(S7A)HN-FLAG was precipitated by (His)₆-EF-(S7A)HN as efficiently as HN-FLAG precipitation by (His)₆-HN.

T2 sequence (Q8IVG9 whole entry): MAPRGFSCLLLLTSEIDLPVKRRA

Molecule | IC50 [1] [nM] | Full protection (minimal concentration that exerted full cytoprotection) [2] | amount of peptide relative to the amount at time zero [3] | effect of excess competitor on HN-FLAG precipitation by (His)6-HN (HN (self-dimerization)) | IC50 [4] [nM] | binding result ((His)6-(S7A)HN)
MAPRGFSCLLLLTGEIDLPVKRRA [HNG, reference compound] | ~0.03 | ˜10 nM | about ⅔ | abolished | ~0.5 | –
MAPRGFACLLLLTSEIDLPVKRRADYKDDDDK (Synthetic C-terminally FLAG-tagged peptide; also called (S7A)HN-FLAG) [(S7A)HN-DYKDDDDK (S7A-FLAG)] | – | – | – | – | – | no binding (tested: 1 nmol of each peptide in 0.5 ml)
